We go through 36 compounds from patent US7977322B2 (Vertex Pharmaceuticals Incorporated, priority 2004, dated 2011).

Some results are limits rather than exact numbers.

This assay addresses T1, ΔF508-CFTR (Homo sapiens, UniProt P13569, DEL508-508).
T1 construct: expressed in transfected cells
Kind of assay: Membrane potential optical (FRET/VIPR) assay, identification of correction compounds. Format: cell-based. As to conditions: Table 3, assay not given; for Emax: read-out: % Activity / % Efficacy (relative efficacy). In a few lines: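 NIH3T3 mouse fibroblasts stably expressing ΔF508-CFTR were exposed to compound for 16 h at 37° C in serum-free medium, then loaded with DiSBAC2(3)/CC2-DMPE. After addition of 10 μM forskolin plus 20 μM genistein in Cl⁻-free gluconate bath (pH 7.4), depolarization from Cl⁻ efflux was read by FRET (VIPR II).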

T1 sequence (P13569 with tags, fused parts or gaps DEL508-508): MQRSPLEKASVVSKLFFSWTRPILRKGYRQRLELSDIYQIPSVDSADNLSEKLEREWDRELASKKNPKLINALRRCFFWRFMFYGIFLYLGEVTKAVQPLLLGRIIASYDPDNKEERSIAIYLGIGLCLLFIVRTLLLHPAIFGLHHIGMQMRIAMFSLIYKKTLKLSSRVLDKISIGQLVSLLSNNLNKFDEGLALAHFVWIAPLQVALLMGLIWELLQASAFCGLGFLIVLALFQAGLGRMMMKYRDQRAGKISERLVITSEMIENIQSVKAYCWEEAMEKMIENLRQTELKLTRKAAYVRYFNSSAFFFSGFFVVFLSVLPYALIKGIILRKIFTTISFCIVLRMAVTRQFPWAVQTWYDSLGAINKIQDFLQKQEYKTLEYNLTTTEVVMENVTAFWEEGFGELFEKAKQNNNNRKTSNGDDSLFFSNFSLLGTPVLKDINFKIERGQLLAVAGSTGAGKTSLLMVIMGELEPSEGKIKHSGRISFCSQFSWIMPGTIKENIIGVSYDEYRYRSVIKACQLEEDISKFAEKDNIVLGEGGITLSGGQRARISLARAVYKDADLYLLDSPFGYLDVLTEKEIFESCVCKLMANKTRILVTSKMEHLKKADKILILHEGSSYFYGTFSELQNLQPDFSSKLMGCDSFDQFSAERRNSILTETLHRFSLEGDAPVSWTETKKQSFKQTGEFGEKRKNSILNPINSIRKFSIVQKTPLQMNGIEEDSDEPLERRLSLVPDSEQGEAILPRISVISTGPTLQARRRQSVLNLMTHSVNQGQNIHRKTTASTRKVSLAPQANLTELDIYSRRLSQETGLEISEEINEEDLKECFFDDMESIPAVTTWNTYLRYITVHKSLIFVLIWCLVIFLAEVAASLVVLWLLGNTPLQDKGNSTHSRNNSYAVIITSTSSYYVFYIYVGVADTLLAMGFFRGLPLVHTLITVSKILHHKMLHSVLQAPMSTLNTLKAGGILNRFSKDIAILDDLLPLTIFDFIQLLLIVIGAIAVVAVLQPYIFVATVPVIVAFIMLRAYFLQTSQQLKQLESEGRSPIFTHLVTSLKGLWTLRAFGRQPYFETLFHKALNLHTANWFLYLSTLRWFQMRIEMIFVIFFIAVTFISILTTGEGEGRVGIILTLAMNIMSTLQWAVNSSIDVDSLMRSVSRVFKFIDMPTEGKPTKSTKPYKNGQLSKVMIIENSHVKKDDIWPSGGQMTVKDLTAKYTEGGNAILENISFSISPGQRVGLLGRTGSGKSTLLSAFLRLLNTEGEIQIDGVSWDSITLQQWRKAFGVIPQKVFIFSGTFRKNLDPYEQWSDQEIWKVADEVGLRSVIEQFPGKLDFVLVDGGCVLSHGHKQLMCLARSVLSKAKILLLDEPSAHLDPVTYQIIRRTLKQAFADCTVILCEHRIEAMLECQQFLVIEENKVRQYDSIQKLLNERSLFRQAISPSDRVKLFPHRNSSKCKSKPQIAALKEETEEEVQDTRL

For the compound `Cc1ccccc1C(c1cnc(NC(=O)C2(c3ccc4c(c3)OCO4)CC2)s1)N1CC[C@@H](O)C1` (stereo partly drawn) [Example 466], the EC50 was 10 to 25 µM and the Emax was greater than 100%.

Consider `O=C(Nc1ncc(C(c2ccc(Cl)cc2Cl)N2CCCC2)s1)C1(c2ccc3c(c2)OCO3)CC1` (stereo not drawn) [Example 467], for which the EC50 is less than 10 µM and the Emax is greater than 100%.

For `O=C(Nc1ncc(C(c2ccccc2C(F)(F)F)N2CCCC2)s1)C1(c2ccc3c(c2)OCO3)CC1` (stereo not drawn) [Example 468], the EC50 was less than 10 µM and the Emax is greater than 100%.

For the compound `Cc1ccccc1C(c1cnc(NC(=O)C2(c3ccc4c(c3)OCO4)CC2)s1)N1CCCC1` (stereo not drawn) [Example 469], the EC50 was less than 10 µM and the Emax was greater than 100%.

Turning to `O=C(Nc1ncc(C(c2ccc(Cl)cc2Cl)N2CC[C@@H](O)C2)s1)C1(c2ccc3c(c2)OCO3)CC1` (stereo partly drawn) [Example 470], the EC50 was less than 10 µM and the Emax is greater than 100%.

For the compound `O=C(Nc1ncc(C(c2cc(F)ccc2F)N2CCCC2)s1)C1(c2ccc3c(c2)OCO3)CC1` (stereo not drawn) [Example 471], the EC50 is less than 10 µM and the Emax was greater than 100%.

For the compound `O=C(Nc1ncc(C(c2ccccc2F)N2CC[C@@H](O)C2)s1)C1(c2ccc3c(c2)OCO3)CC1` (stereo partly drawn) [Example 472], the EC50 was less than 10 µM and the Emax is greater than 100%.

For the compound `CCOc1ccccc1C(c1cnc(NC(=O)C2(c3ccc4c(c3)OCO4)CC2)s1)N1CC[C@@H](O)C1` (stereo partly drawn) [Example 473], the EC50 is less than 10 µM and the Emax is greater than 100%.

As for `O=C(Nc1ncc(C(c2cc(F)ccc2F)N2CC[C@@H](O)C2)s1)C1(c2ccc3c(c2)OCO3)CC1` (stereo partly drawn) [Example 474], the EC50 is less than 10 µM and the Emax was greater than 100%.

For `NC(c1cnc(NC(=O)C2(c3ccc4c(c3)OCO4)CC2)s1)c1ccccc1Cl` (stereo not drawn) [Example 475], the concentration for a half-maximal effect (EC50) was less than 10 µM and the Emax was in the range of 25 to 100%.

In the case of `CCOc1ccccc1C(NC(CO)CC(C)C)c1cnc(NC(=O)C2(c3ccc4c(c3)OCO4)CC2)s1` (stereo not drawn) [Example 476], the Emax was greater than 100%.

`CCOc1ccccc1C(N[C@@H](CO)CC(C)C)c1cnc(NC(=O)C2(c3ccc4c(c3)OCO4)CC2)s1` (stereo partly drawn) [Example 476]: the EC50 was less than 10 µM.

`Cc1ccccc1C(N[C@@H](CO)CC(C)C)c1cnc(NC(=O)C2(c3ccc4c(c3)OCO4)CC2)s1` (stereo partly drawn) [Example 477]: the EC50 was less than 10 µM and the Emax was greater than 100%.

On to `CCOc1ccccc1C(NC(CO)C(C)C)c1cnc(NC(=O)C2(c3ccc4c(c3)OCO4)CC2)s1` (stereo not drawn) [Example 478], for which the Emax is greater than 100%.

With `CCOc1ccccc1C(N[C@@H](CO)C(C)C)c1cnc(NC(=O)C2(c3ccc4c(c3)OCO4)CC2)s1` (stereo partly drawn) [Example 478], the EC50 was less than 10 µM.

With `Cc1ccccc1C(N[C@@H](CO)C(C)C)c1cnc(NC(=O)C2(c3ccc4c(c3)OCO4)CC2)s1` (stereo partly drawn) [Example 479], the half-maximal effective concentration (EC50) is less than 10 µM and the Emax was greater than 100%.

On to `CC(C)C[C@H](CO)NC(c1cnc(NC(=O)C2(c3ccc4c(c3)OCO4)CC2)s1)c1cc(F)ccc1F` (stereo partly drawn) [Example 480], for which the concentration giving a half-maximal response (EC50) is less than 10 µM and the Emax is greater than 100%.

Consider `CC(C)[C@H](CO)NC(c1cnc(NC(=O)C2(c3ccc4c(c3)OCO4)CC2)s1)c1ccccc1C(F)(F)F` (stereo partly drawn) [Example 481], for which the EC50 was less than 10 µM and the Emax was greater than 100%.

As to `CC(C)C[C@H](CO)NC(c1cnc(NC(=O)C2(c3ccc4c(c3)OCO4)CC2)s1)c1ccccc1F` (stereo partly drawn) [Example 482], the half-maximal effective concentration (EC50) is less than 10 µM and the Emax was greater than 100%.

On to `CC(C)[C@H](CO)NC(c1cnc(NC(=O)C2(c3ccc4c(c3)OCO4)CC2)s1)c1ccccc1F` (stereo partly drawn) [Example 483], for which the EC50 was less than 10 µM and the Emax is greater than 100%.

For `CC(C)[C@H](CO)NC(c1cnc(NC(=O)C2(c3ccc4c(c3)OCO4)CC2)s1)c1cc(F)ccc1F` (stereo partly drawn) [Example 484], the concentration giving a half-maximal response (EC50) is less than 10 µM and the Emax is greater than 100%.

For the compound `CCC[C@@H](CO)NC(c1cnc(NC(=O)C2(c3ccc4c(c3)OCO4)CC2)s1)c1ccccc1Cl` (stereo partly drawn) [Example 485], the EC50 is less than 10 µM and the Emax is greater than 100%.

Take `CCC(CO)NC(c1cnc(NC(=O)C2(c3ccc4c(c3)OCO4)CC2)s1)c1ccccc1Cl` (stereo not drawn) [Example 486]: the EC50 is less than 10 µM and the Emax is greater than 100%.

In the case of `C[C@@H](O)CNC(c1cnc(NC(=O)C2(c3ccc4c(c3)OCO4)CC2)s1)c1ccccc1Cl` (stereo partly drawn) [Example 487], the EC50 is less than 10 µM and the Emax was greater than 100%.

With `CC(C)(C)[C@H](CO)NC(c1cnc(NC(=O)C2(c3ccc4c(c3)OCO4)CC2)s1)c1ccccc1Cl` (stereo partly drawn) [Example 488], the concentration for a half-maximal effect (EC50) was less than 10 µM and the Emax was greater than 100%.

Consider `CCC[C@H](CO)NC(c1cnc(NC(=O)C2(c3ccc4c(c3)OCO4)CC2)s1)c1ccccc1Cl` (stereo partly drawn) [Example 489], for which the concentration for a half-maximal effect (EC50) is less than 10 µM and the Emax was greater than 100%.

Take `CC(C)(C)[C@@H](CO)NC(c1cnc(NC(=O)C2(c3ccc4c(c3)OCO4)CC2)s1)c1ccccc1Cl` (stereo partly drawn) [Example 490]: the EC50 was 10 to 25 µM and the Emax fell in the range of 25 to 100%.

Regarding `CCCC[C@@H](CO)NC(c1cnc(NC(=O)C2(c3ccc4c(c3)OCO4)CC2)s1)c1ccccc1Cl` (stereo partly drawn) [Example 491], the EC50 was less than 10 µM and the Emax is greater than 100%.

With `O=C(Nc1ncc(C(c2ccccc2Cl)N2CC[C@@H](O)C2)s1)C1(c2ccc3c(c2)OC(F)(F)O3)CC1` (stereo partly drawn) [Example 492], the EC50 is less than 10 µM and the Emax was greater than 100%.

With `CC(C)[C@H](CO)NC(c1ccc2c(c1)OC(F)(F)O2)c1cnc(NC(=O)C2(c3ccc4c(c3)OCO4)CC2)s1` (stereo partly drawn) [Example 493], the EC50 was less than 10 µM and the Emax is greater than 100%.

For `O=C(Nc1ncc(C(c2cccc3c2OC(F)(F)O3)N2CCCC2)s1)C1(c2ccc3c(c2)OCO3)CC1` (stereo not drawn) [Example 494], the EC50 is less than 10 µM and the Emax was in the range of 25 to 100%.

Regarding `CC(C)C[C@@H](CO)NC(c1cnc(NC(=O)C2(c3ccc4c(c3)OCO4)CC2)s1)c1ccccc1Cl` (stereo partly drawn) [Example 495], the EC50 was less than 10 µM and the Emax is 25 to 100%.

`O=C(Nc1ncc(C(c2cccc3c2OC(F)(F)O3)N2CC[C@@H](O)C2)s1)C1(c2ccc3c(c2)OCO3)CC1` (stereo partly drawn) [Example 496]: the EC50 was less than 10 µM and the Emax is 25 to 100%.

Turning to `CCCC[C@H](CO)NC(c1cnc(NC(=O)C2(c3ccc4c(c3)OCO4)CC2)s1)c1ccccc1Cl` (stereo partly drawn) [Example 497], the half-maximal effective concentration (EC50) is less than 10 µM and the Emax was greater than 100%.

For `CC(C)CC(CO)NC(c1cnc(NC(=O)C2(c3ccc4c(c3)OCO4)CC2)s1)c1cccc2c1OC(F)(F)O2` (stereo not drawn) [Example 498], the Emax is greater than 100%.

`CC(C)C[C@H](CO)NC(c1cnc(NC(=O)C2(c3ccc4c(c3)OCO4)CC2)s1)c1cccc2c1OC(F)(F)O2` (stereo partly drawn) [Example 498]: the EC50 is less than 10 µM.
